According to patent US20230398130A1, “METHODS AND COMPOSITIONS FOR DIFFERENTIATING STEM CELLS” (Massachusetts Institute of Technology, priority 2020, published 2023):

Key:
[1] = test system: ISC-enriched organoids; test: Primary screen, 384-well 2.5-D organoid differentiation (ENR+CD, 6 days): basal lysozyme secretion (LYZ.NS); format: cell-based, murine; conditions: for Dose.FC.LYZ.NS / Z.LYZ.NS: primary screen; for Dose.FC.LYZ.NS: ENR+CD 6 days, FC vs plate median; for Z.LYZ.NS: standard z score of FC; for Dose.FC.LYZ.NS (log 2 fold change, basal lysozyme secretion): vs plate median
Source text: (§1) High-throughput screening.

[2] = test system: ISC-enriched organoids; test: Primary screen, 384-well 2.5-D organoid differentiation (ENR+CD, 6 days): carbachol-induced lysozyme secretion (LYZ.S); format: cell-based, murine; conditions: for Dose.FC.LYZ.S: primary screen, ENR+CD 6 days, FC vs plate median; for Dose.FC.LYZ.S (log 2 fold change, carbachol-induced lysozyme secretion): vs plate median
Source text: as §1

[3] = test system: ISC-enriched organoids; test: Primary screen, 384-well 2.5-D organoid differentiation (ENR+CD, 6 days, Target Selective Inhibitor Library, vs whole-plate median): ATP (CellTiter-Glo 3D, CTG); conditions: for Dose.FC.CTG / Z.CTG: primary screen; for Dose.FC.CTG: ENR+CD 6 days, FC vs plate median; for Z.CTG: standard z score of FC; for Dose.FC.CTG (log 2 fold change, ATP): vs plate median
[4] = dose 0.08 uM (1st of 4 lines per treatment; dose not printed in this part)
[5] = dose 0.40 uM (2nd of 4 lines per treatment; dose not printed in this part)
[6] = dose 2.00 uM (3rd of 4 lines per treatment; dose not printed in this part)
[7] = dose 10.00 uM (4th of 4 lines per treatment; dose not printed in this part)

Compound	Dose.FC.LYZ.NS ([1]; dose 0.08 uM)	Z.LYZ.NS ([1]; dose 0.08 uM)	Dose.FC.LYZ.NS ([1]; dose 0.40 uM)	Z.LYZ.NS ([1]; dose 0.40 uM)	Dose.FC.LYZ.NS ([1]; dose 2.00 uM)	Z.LYZ.NS ([1]; dose 2.00 uM)	Dose.FC.LYZ.NS ([1]; dose 10.00 uM)	Z.LYZ.NS ([1]; dose 10.00 uM)	Dose.FC.LYZ.S ([2]; dose 0.08 uM)	Dose.FC.LYZ.S ([2]; dose 0.40 uM)	Dose.FC.LYZ.S ([2]; dose 2.00 uM)	Dose.FC.LYZ.S ([2]; dose 10.00 uM)	Dose.FC.CTG ([3]; dose 0.08 uM)	Z.CTG ([3]; dose 0.08 uM)	Dose.FC.CTG ([3]; dose 0.40 uM)	Z.CTG ([3]; dose 0.40 uM)	Dose.FC.CTG ([3]; dose 2.00 uM)	Z.CTG ([3]; dose 2.00 uM)	Dose.FC.CTG ([3]; dose 10.00 uM)	Z.CTG ([3]; dose 10.00 uM)	other results
C[C@H]1COC2(CCN(c3nc(=O)c4cc(C(F)(F)F)cc([N+](=O)[O-])c4s3)CC2)O1 (racemic) [BTZ043 Racemate]	0.131 log 2 fold change	1.138	0.186 log 2 fold change	1.619	0.089 log 2 fold change	0.776	0.100 log 2 fold change	0.870	0.199 log 2 fold change	0.252 log 2 fold change	0.038 log 2 fold change	0.070 log 2 fold change	0.497 log 2 fold change	1.187	0.545 log 2 fold change	1.303	0.063 log 2 fold change	0.150	0.327 log 2 fold change	0.782	
Cl.N[C@@H]1C[C@H]1c1ccccc1 (racemic) [Tranylcypromine (2-PCPA) HCl]																					Z.LYZ.NS (standard z score) ([1]; dose 0.08 uM): 0.285; Dose.FC.LYZ.NS (log 2 fold change, basal lysozyme secretion) ([1]; dose 0.08 uM): 0.033; Z.LYZ.NS (standard z score) ([1]; dose 0.40 uM): −0.426; Dose.FC.LYZ.NS (log 2 fold change, basal lysozyme secretion) ([1]; dose 0.40 uM): −0.049; Z.LYZ.NS (standard z score) ([1]; dose 2.00 uM): 0.423; Dose.FC.LYZ.NS (log 2 fold change, basal lysozyme secretion) ([1]; dose 2.00 uM): 0.049; Z.LYZ.NS (standard z score) ([1]; dose 10.00 uM): −0.389; Dose.FC.LYZ.NS (log 2 fold change, basal lysozyme secretion) ([1]; dose 10.00 uM): −0.045; Dose.FC.LYZ.S (log 2 fold change, carbachol-induced lysozyme secretion) ([2]; dose 0.08 uM): 0.050; Dose.FC.LYZ.S (log 2 fold change, carbachol-induced lysozyme secretion) ([2]; dose 0.40 uM): −0.037; Dose.FC.LYZ.S (log 2 fold change, carbachol-induced lysozyme secretion) ([2]; dose 2.00 uM): 0.036; Dose.FC.LYZ.S (log 2 fold change, carbachol-induced lysozyme secretion) ([2]; dose 10.00 uM): −0.096; Z.CTG (standard z score) ([3]; dose 0.08 uM): −0.153; Dose.FC.CTG (log 2 fold change, ATP) ([3]; dose 0.08 uM): −0.064; Z.CTG (standard z score) ([3]; dose 0.40 uM): 0.148; Dose.FC.CTG (log 2 fold change, ATP) ([3]; dose 0.40 uM): 0.062; Z.CTG (standard z score) ([3]; dose 2.00 uM): 0.128; Dose.FC.CTG (log 2 fold change, ATP) ([3]; dose 2.00 uM): 0.053; Z.CTG (standard z score) ([3]; dose 10.00 uM): −1.274; Dose.FC.CTG (log 2 fold change, ATP) ([3]; dose 10.00 uM): −0.533
COc1cc2c(cc1O)CC[C@@H]1[C@@H]2CC[C@]2(C)[C@@H](O)CC[C@@H]12 [2-Methoxyestradiol (2-MeOE2)]	0.021 log 2 fold change	0.186	0.065 log 2 fold change	0.566	0.005 log 2 fold change	0.041	−0.139 log 2 fold change	−1.209	0.189 log 2 fold change	0.270 log 2 fold change	0.029 log 2 fold change	−0.278 log 2 fold change	0.299 log 2 fold change	0.714	0.401 log 2 fold change	0.957	0.227 log 2 fold change	0.543	−0.672 log 2 fold change	−1.606	SSMD.LYZ.NS_Rep (strictly standardized mean difference) [1, 4]: 0.077; SSMD.LYZ.NS_Rep (strictly standardized mean difference) [1, 5]: 0.227; SSMD.LYZ.NS_Rep (strictly standardized mean difference) [1, 6]: 0.049; SSMD.LYZ.NS_Rep (strictly standardized mean difference) [1, 7]: −0.826; SSMD.LYZ.S_Rep (strictly standardized mean difference) [2, 4]: 1.015; Z.LYZ.S (standard z score) [2, 4]: 1.224; SSMD.LYZ.S_Rep (strictly standardized mean difference) [2, 5]: 0.831; Z.LYZ.S (standard z score) [2, 5]: 1.747; SSMD.LYZ.S_Rep (strictly standardized mean difference) [2, 6]: 0.144; Z.LYZ.S (standard z score) [2, 6]: 0.190; SSMD.LYZ.S_Rep (strictly standardized mean difference) [2, 7]: −1.135; Z.LYZ.S (standard z score) [2, 7]: −1.795; SSMD.CTG_Rep (strictly standardized mean difference) [3, 4]: 0.407; SSMD.CTG_Rep (strictly standardized mean difference) [3, 5]: 0.930; SSMD.CTG_Rep (strictly standardized mean difference) [3, 6]: 0.461; SSMD.CTG_Rep (strictly standardized mean difference) [3, 7]: −0.878
